Values joined by “and” are separate entries in the source; they are usually repeats but may differ in a detail not shown here. Equal entries are not always repeated. Inconclusive results and toxic doses are left out. Cut-off read from the data, not from the text of the source: active = T/C of 150% or more; inactive = T/C below 125%.
Test system: L1210 leukemia ip in BDF1 mice, survival T/C
Assay: NCI In Vivo Anticancer Drug Screen. Data for tumor model L1210 Leukemia (intraperitoneal) in B6D2F1 (BDF1) mice
Conditions: endpoint: mean survival time, higher = longer survival
How it was run: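 Tumor cells were implanted, animals were treated, and survival was followed. The result divides the treated measurement by the vehicle-control measurement.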

[1] = dose: 6.25 mg/kg/injection, schedule: Q01DX009 (ip), vehicle: Klucel (hydroxypropylcellulose) (HPC)
[2] = dose: 12.5 mg/kg/injection, schedule: Q01DX009 (ip), vehicle: Klucel (hydroxypropylcellulose) (HPC)
[3] = dose: 25.0 mg/kg/injection, schedule: Q01DX009 (ip), vehicle: Klucel (hydroxypropylcellulose) (HPC)
[4] = dose: 50.0 mg/kg/injection, schedule: Q01DX009 (ip), vehicle: Klucel (hydroxypropylcellulose) (HPC)
[5] = dose: 100.0 mg/kg/injection, schedule: Q01DX001 (ip), vehicle: Klucel (hydroxypropylcellulose) (HPC)
[6] = dose: 100.0 mg/kg/injection, schedule: Q04DX003 (ip), vehicle: Klucel (hydroxypropylcellulose) (HPC)
[7] = dose: 200.0 mg/kg/injection, schedule: Q04DX003 (ip), vehicle: Klucel (hydroxypropylcellulose) (HPC)
[8] = dose: 400.0 mg/kg/injection, schedule: Q04DX003 (ip), vehicle: Klucel (hydroxypropylcellulose) (HPC)
[9] = dose: 6.25 mg/kg/injection, schedule: Q04DX002 (ip), vehicle: Klucel (hydroxypropylcellulose) (HPC)
[10] = dose: 12.5 mg/kg/injection, schedule: Q04DX002 (ip), vehicle: Klucel (hydroxypropylcellulose) (HPC)
[11] = dose: 100.0 mg/kg/injection, schedule: Q01DX009 (ip), vehicle: Klucel (hydroxypropylcellulose) (HPC)
[12] = dose: 200.0 mg/kg/injection, schedule: Q01DX009 (ip), vehicle: Klucel (hydroxypropylcellulose) (HPC)
[13] = dose: 100.0 mg/kg/injection, schedule: Q01DX009 (ip), vehicle: saline
[14] = dose: 200.0 mg/kg/injection, schedule: Q01DX009 (ip), vehicle: saline
[15] = dose: 400.0 mg/kg/injection, schedule: Q01DX009 (ip), vehicle: saline
[16] = dose: 200.0 mg/kg/injection, schedule: Q04DX002 (ip), vehicle: saline with Tween-80
[17] = dose: 400.0 mg/kg/injection, schedule: Q04DX002 (ip), vehicle: saline with Tween-80
[18] = dose: 75.0 mg/kg/injection, schedule: Q01DX001 (ip), vehicle: saline
[19] = dose: 150.0 mg/kg/injection, schedule: Q01DX001 (ip), vehicle: saline

Measured: T/C

COC(=O)[C@H]1[C@H]2C[C@@H]3c4[nH]c5cc(OC)ccc5c4CCN3C[C@H]2C[C@@H](OC(=O)/C=C/c2cc(OC)c(OC)c(OC)c2)[C@@H]1OC
inactive: dose: 3.12 mg/kg/injection, schedule: Q01DX009 (ip), vehicle: Klucel (hydroxypropylcellulose) (HPC) 96 % of control | [1] 96 % of control | [2] 105 % of control | [3] 96 % of control | dose: 25.0 mg/kg/injection, schedule: Q04DX003 (ip), vehicle: Klucel (hydroxypropylcellulose) (HPC) 111 % of control | [4] 100 % of control | dose: 50.0 mg/kg/injection, schedule: Q04DX003 (ip), vehicle: Klucel (hydroxypropylcellulose) (HPC) 103 % of control

N#Cc1c2ccccc2c(=N)n2ccccc12
inactive: [5] 95 % of control | [6] 98 % of control | dose: 200.0 mg/kg/injection, schedule: Q01DX001 (ip), vehicle: Klucel (hydroxypropylcellulose) (HPC) 105 % of control | [7] 104 % of control | dose: 400.0 mg/kg/injection, schedule: Q01DX001 (ip), vehicle: Klucel (hydroxypropylcellulose) (HPC) 95 % of control | [8] 114 % of control

OCC1(c2ccccc2)OC1(c1ccccc1)c1ccccc1 (stereo not given)
inactive: [9] 86 % of control | [10] 101 % of control | dose: 25.0 mg/kg/injection, schedule: Q04DX002 (ip), vehicle: Klucel (hydroxypropylcellulose) (HPC) 99 % of control and 101 % of control

CC(C)(C)c1ccc(SCCN=C(N)CSS(=O)(=O)O)cc1
inactive: dose: 3.13 mg/kg/injection, schedule: Q01DX009 (ip), vehicle: Klucel (hydroxypropylcellulose) (HPC) 91 % of control | dose: 3.13 mg/kg/injection, schedule: Q04DX002 (ip), vehicle: Klucel (hydroxypropylcellulose) (HPC) 98 % of control | [1] 102 % of control | [9] 107 % of control | [10] 98 % of control and 106 % of control

CCC1(c2ccccc2)OC1C(=O)OCC(C)C (stereo not given)
inactive: dose: 100.0 mg/kg/injection, schedule: Q04DX002 (ip), vehicle: saline 112 % of control | dose: 200.0 mg/kg/injection, schedule: Q04DX002 (ip), vehicle: saline 97 % of control | dose: 400.0 mg/kg/injection, schedule: Q04DX002 (ip), vehicle: saline 101 % of control

Cc1ccc(NS(=O)(=O)c2ccc(Cl)cc2)cc1Cl
inactive: [3] 94 % of control | [4] 99 % of control | [11] 96 % of control | [6] 106 % of control | [12] 99 % of control | [7] 96 % of control | dose: 400.0 mg/kg/injection, schedule: Q01DX009 (ip), vehicle: Klucel (hydroxypropylcellulose) (HPC) 88 % of control | [8] 100 % of control

CCCCCC(O)CCCCC
inactive: [13] 102 % of control | [14] 107 % of control | [15] 113 % of control

C/C(=C\C(C)(C)c1ccccc1)c1ccccc1
inactive: dose: 50.0 mg/kg/injection, schedule: Q04DX003 (ip), vehicle: other 92 % of control | dose: 100.0 mg/kg/injection, schedule: Q04DX003 (ip), vehicle: other 92 % of control | dose: 200.0 mg/kg/injection, schedule: Q04DX003 (ip), vehicle: other 100 % of control

CC1CN(c2ccc([N+](=O)[O-])cc2)C(C)CN1N=O (stereo not given)
inactive: dose: 25.0 mg/kg/injection, schedule: Q01DX009 (ip), vehicle: saline 106 % of control | dose: 50.0 mg/kg/injection, schedule: Q01DX009 (ip), vehicle: saline 104 % of control | [13] 98 % of control | [14] 97 % of control | [15] 95 % of control

O=C(O)CC1CC2CCC1C2 (stereo not given)
inactive: dose: 100.0 mg/kg/injection, schedule: Q04DX002 (ip), vehicle: saline with Tween-80 87 % of control | [16] 97 % of control | [17] 87 % of control

O=C1NC2(C=CC(Br)CC2)C(=O)C12CCCCC2 (stereo not given)
inactive: [18] 104 % of control | [19] 100 % of control | dose: 300.0 mg/kg/injection, schedule: Q01DX001 (ip), vehicle: saline 102 % of control

O=C1c2cccc(NCCO)c2C(=O)c2c(NCCO)cccc21
inactive: [6] 94 % of control | [7] 102 % of control | [8] 94 % of control

Cc1ccc(C(/C=C/c2ccccc2)=N\N=C(N)N)cc1
inactive: dose: 15.0 mg/kg/injection, schedule: Q01DX Z (ip), vehicle: methylcellulose (MC) 87 % of control | dose: 30.0 mg/kg/injection, schedule: Q01DX Z (ip), vehicle: methylcellulose (MC) 87 % of control | dose: 30.0 mg/kg/injection, schedule: Q01DX Z (oral), vehicle: methylcellulose (MC) 93 % of control | dose: 60.0 mg/kg/injection, schedule: Q01DX Z (ip), vehicle: methylcellulose (MC) 97 % of control | dose: 60.0 mg/kg/injection, schedule: Q01DX Z (oral), vehicle: methylcellulose (MC) 87 % of control | dose: 120.0 mg/kg/injection, schedule: Q01DX Z (oral), vehicle: methylcellulose (MC) 95 % of control | dose: 240.0 mg/kg/injection, schedule: Q01DX Z (oral), vehicle: methylcellulose (MC) 95 % of control | dose: 480.0 mg/kg/injection, schedule: Q01DX Z (oral), vehicle: methylcellulose (MC) 100 % of control

O=c1[nH]c2c(Cl)cc(Cl)cc2c2ccccc12
inactive: dose: 100.0 mg/kg/injection, schedule: Q01DX001 (ip), vehicle: carboxymethylcellulose (CMC) 87 % of control | dose: 200.0 mg/kg/injection, schedule: Q01DX001 (ip), vehicle: carboxymethylcellulose (CMC) 92 % of control | dose: 400.0 mg/kg/injection, schedule: Q01DX001 (ip), vehicle: carboxymethylcellulose (CMC) 100 % of control

Nc1nccs1
inactive: dose: 0.75 mg/kg/injection, schedule: Q01DX009 (ip), vehicle: carboxymethylcellulose (CMC) 100 % of control | dose: 1.5 mg/kg/injection, schedule: Q01DX009 (ip), vehicle: carboxymethylcellulose (CMC) 103 % of control | dose: 1.5 mg/kg/injection, schedule: Q04DX002 (ip), vehicle: saline with Tween-80 93 % of control | dose: 3.0 mg/kg/injection, schedule: Q01DX009 (ip), vehicle: carboxymethylcellulose (CMC) 100 % of control | dose: 3.0 mg/kg/injection, schedule: Q04DX002 (ip), vehicle: saline with Tween-80 90 % of control | dose: 3.5 mg/kg/injection, schedule: Q04DX002 (ip), vehicle: saline with Tween-80 91 % of control | dose: 6.0 mg/kg/injection, schedule: Q01DX009 (ip), vehicle: carboxymethylcellulose (CMC) 100 % of control | dose: 12.0 mg/kg/injection, schedule: Q01DX009 (ip), vehicle: carboxymethylcellulose (CMC) 103 % of control | dose: 12.0 mg/kg/injection, schedule: Q04DX002 (ip), vehicle: saline with Tween-80 101 % of control and 91 % of control

O=C(O)c1c(Cl)nsc1Cl
inactive: [11] 98 % of control | [12] 98 % of control

CCCc1c2cc(OC)c(OC)cc2cc2c3cc(OC)c(OC)cc3cc[n+]12 (tested in a mixture with another compound)
inactive: [2] 109 % of control | [3] 107 % of control | [4] 106 % of control and 123 % of control | [6] 100 % of control | [7] 110 % of control

C[N+]1(CCCNC2=CC(=O)C=CC2=O)CCCC1
inactive: dose: 0.5 mg/kg/injection, schedule: Q01DX001 (ip), vehicle: saline 108 % of control

O=C1C=C(C(c2ccccc2)c2ccccc2)C(=O)C=C1NS(=O)(=O)c1ccccc1
inactive: dose: 25.0 mg/kg/injection, schedule: Q01DX001 (ip), vehicle: Klucel (hydroxypropylcellulose) (HPC) 106 % of control | dose: 50.0 mg/kg/injection, schedule: Q01DX001 (ip), vehicle: Klucel (hydroxypropylcellulose) (HPC) 97 % of control | [5] 95 % of control

O=C1c2ccccc2-c2ccc(-c3ccccc3)c3cccc1c23
inactive: dose: 50.0 mg/kg/injection, schedule: Q04DX002 (ip), vehicle: Klucel (hydroxypropylcellulose) (HPC) 105 % of control | dose: 100.0 mg/kg/injection, schedule: Q04DX002 (ip), vehicle: Klucel (hydroxypropylcellulose) (HPC) 102 % of control | dose: 200.0 mg/kg/injection, schedule: Q04DX002 (ip), vehicle: Klucel (hydroxypropylcellulose) (HPC) 98 % of control | [16] 105 % of control | [17] 98 % of control

Cc1ccc(N=Nc2sc(N)nc2C)cc1
inactive: [18] 97 % of control | [19] 102 % of control
